The target of data set [1] is T1, PDE4B (Homo sapiens, UniProt Q07343).
T1 construct: purchased Enzo Life Sciences BML-SE522-0020
Description: PDE4B enzyme activity assay (PDE-Glo Phosphodiesterase Assay Kit). It is filed as biochemical. As to conditions: for IC50 (PDE4D)/IC50 (PDE4B): selectivity ratio. As for the experimental part:
(§1) For the previously synthesized compounds, the inhibitory activity of the compounds against PDE4B and against PDE4D was tested by using PDE-Glo Phosphodiesterase Assay Kit (promega, V1361). In short, in accordance with the instructions of the kit, a concentrated stock solution (10 mM) the compound to be tested was first prepared with DMSO solvent, and the concentrated stock solution was then diluted into 10× working solutions with a Reaction buffer provided in the kit. With the Reaction buffer, on ice, PDE4B enzyme (Enzo Life Sciences, BML-SE522-0020) was diluted to a concentration of 1 ng/μl to obtain a PDE4B enzyme working solution, and PDE4D enzyme (Enzo Life Sciences, BML-SE523-0020) was diluted to a concentration of 4 ng/μl to obtain a PDE4D enzyme working solution. 1.5 μl of the PDE4B working solution (or PDE4D working solution) and 1 μl of the compound working solution were added to wells of 384-well plate (Corning, CLS3707), and incubated with shaking at room temperature for 5 min, followed by adding 2.5 μl of cAMP (in Reaction buffer, 2 μM) per well, incubating with shaking at room temperature for 20 min. 2.5 μl/well of 1× Termination Buffer, and then 2.5 μl/well of 1× Detection Buffer were added, and further incubated with shaking at room temperature for 20 min. 10 μl/well of 1× Kinase-Glo was added, and the plate was incubated with shaking at room temperature for 10 min, and bioluminescence was measured with PheraStar instrument. The experimental results were plotted with GraphPad Prism software, and fitted to calculate IC50 of each compound.

Data set [2] concerns LPS-stimulated TNF-α release. Description: LPS-stimulated TNF-α release in mice. It is filed as in vivo, Balb/c mice. As to conditions: Mus musculus, oral 50 mg/kg (positive control 100 mg/kg), 1 mg/kg LPS i.p. As for the experimental part:
18 Balb/c mice (6 to 8 weeks) were randomly assigned to a blank group, a model group, and an administration group, 6 mice in each group. A vehicle (blank group, model group) or 50 mg/kg compound (administration group, where the dose for the positive control group was 100 mg/kg) was orally administrated. 30 min after the oral administration, PBS (blank group) or 1 mg/kg LPS (model group and administration group) was injected intraperitoneally. 90 min or 120 min after the intraperitoneal injection, blood was collected from the hearts of the mice, and still stood at 2-8° C. for 4 hours, and centrifuged at 5000 rpm for 10 min to collect the serum. The serum was stored at −80° C. for testing.
The serum TNF-α level was tested using a mouse TNF-α detection kit (Mouse TNFa ELISA kit: Biolegend, Cat: 430904). The inhibitory activity of the compounds against the TNF-α release was calculated based on the serum TNF-α level.
Inhibitory activity of compound %={1−(TNFα concentration of administration group−TNFα concentration of blank group)/(TNFα concentration of model group−TNFα concentration of blank group)}×100%.

A short description of data set [3]: Pharmacokinetic test in canine. As to conditions: male, beagle, dog, plasma, oral gavage 5 mg/kg. It is filed as in vivo, beagle dogs. As for the experimental part:
(§2) In the rat pharmacokinetic test, 3 male SD rats (180-240 g) were fasted overnight, and orally administered with 10 mg/kg of compound to be tested. Blood was collected before the administration, and 15 min, 30 min, 1 h, 2 h, 4 h, 8 h, and 24 h hours after the administration. The blood sample was centrifuged at 8000 rpm for 6 min at 4° C., and the plasma was collected and stored at −20° C. The plasma collected at each time point was added and mixed with 3-5 times the amount of acetonitrile solution containing an internal standard, vortexed for 1 min, centrifuged at 13,000 rpm for 10 min at 4° C. The supernatant was taken and mixed with 3 times the amount of water, and an appropriate amount of the mixture was taken for LC-MS/MS analysis. The main pharmacokinetic parameters were analyzed with WinNonlin 7.0 software non-compartmental model.
(§3) In the mouse pharmacokinetic test, 9 male CD-1 mice (20-25 g) were fasted overnight, and orally administered with 10 mg/kg of the compound to be tested. Bloods of 3 mice were collected at each time point, and bloods of 9 mice were alternately collected in total. In the pharmacokinetic test in canine, 3 male beagle dogs (8-10 kg) were fasted overnight, and orally administered with 5 mg/kg of the compound to be test. In the pharmacokinetic test of cynomolgus monkeys, 3 male cynomolgus monkeys (4 to 6.5 kg) were fasted overnight, and orally administered 20 mg/kg of the compound to be test. The remaining processes are the same as those of the rat pharmacokinetic test.

A short description of data set [4]: Mouse pharmacokinetic test. It is filed as in vivo, CD-1 mice. As to conditions: male, CD-1, plasma, oral gavage 10 mg/kg. As for the experimental part: as §2, §3
For data set [5], the system named is LPS-induced secretion of TNFα in human PBMCs. As to the kind of experiment: LPS-induced secretion of TNFα in human PBMCs. It is filed as cell-based. As to conditions: Homo sapiens, PBMC, 24 h, LPS 10 ng/ml. As for the experimental part: Extraction process of peripheral blood mononuclear cells (PBMCs): one unit of human peripheral blood concentrate (concentrated from 200 cc peripheral blood) was sucked and added with 0.9% saline until a total volume reached 120 ml, and mixed homogenously. 15 ml Lymphoprep™ was added into 50 ml centrifuge tube, and then 30 ml of diluted blood concentrate was carefully and slowly added thereto, allowing the diluted blood to be stacked on the layered solution and preventing the diluted blood from being mixed into the separated solutions or breaking the surface of the separated solution, wherein a ratio of Lymphoprep™ to the diluted blood was 1:2. The centrifuge tubes were balanced and placed in a horizontal centrifuge (eppendorf, 5810R), and centrifuged at 800 g and 20° C. for 20 min. The centrifuge tubes were carefully taken out. PBMCs were absorbed by directly inserting the Pasteur pipette deep into the buffy coat. The obtained PBMCs were gently pipetted with 3 times the volume of 0.9% normal saline or PBS (without calcium or magnesium ions) to mix homogenously. After that, the cells were centrifuged at 250 g and 20° C. for 10 min, the supernatant was removed to remove the platelets remaining in the cell suspension. The obtained cell pellet was resuspended in 20 ml of PBS, and counted using trypan blue.
Compound screening by using PBMCs: the PBMC suspension obtained above was centrifuged to remove PBS, then resuspended in complete medium (RPMI1640+10% FBS+1% P/S) and counted. 100 μL/well of the cells was seeded at 5×10^4/well. Each of the compounds to be screened was prepared as 4 times the final concentration, which was added to the cells at 50 μL/well. The compound was pre-incubated for 30 min in advance of being added to the cells. Meanwhile, control wells to which the compound was not added were provided. A final stimulation concentration of LPS was 10 ng/ml, and LPS was formulated as 4 times the final stimulation concentration, and added to the cells at 50 μL/well. Meanwhile, control wells, i.e., wells without LPS were provided. The cells were incubated for 24 h, and 10% of the supernatant was collected for detection. The obtained supernatant was detected using Invitrogen's Human TNF-α kit (REF: 88-7346-88).

Data set [6] can be described thus: Rat pharmacokinetic test. It is filed as in vivo, SD rats. As to conditions: male, Sprague-Dawley (SD), plasma, oral gavage 10 mg/kg. As for the experimental part:
as §2

For data set [7], the target named is T2, PDE4D (Homo sapiens, UniProt Q08499).
T2 construct: purchased Enzo Life Sciences BML-SE523-0020
As to the kind of experiment: PDE4D enzyme activity assay (PDE-Glo Phosphodiesterase Assay Kit). It is filed as biochemical. The procedure:
as §1

The mark [8] stands for this setting: 2 h, blood 120 min after LPS, read-out: Inhibition rate (%) of LPS-stimulated TNF-α release, 120 min.
[9] abbreviates: 1.5 h, blood 90 min after LPS, read-out: Inhibition rate (%) of LPS-stimulated TNF-α release, 90 min.

Where two headings read alike, the source gives them in different places.

This is an account of results in US20220056014A1, “PHENYLPYRROLIDINE COMPOUND AND USE THEREOF” (WUHAN HUMANWELL INNOVATIVE DRUG RESEARCH AND DEVELOPMENT …, priority 2018, published 2022).

T1 sequence (Q07343 whole entry): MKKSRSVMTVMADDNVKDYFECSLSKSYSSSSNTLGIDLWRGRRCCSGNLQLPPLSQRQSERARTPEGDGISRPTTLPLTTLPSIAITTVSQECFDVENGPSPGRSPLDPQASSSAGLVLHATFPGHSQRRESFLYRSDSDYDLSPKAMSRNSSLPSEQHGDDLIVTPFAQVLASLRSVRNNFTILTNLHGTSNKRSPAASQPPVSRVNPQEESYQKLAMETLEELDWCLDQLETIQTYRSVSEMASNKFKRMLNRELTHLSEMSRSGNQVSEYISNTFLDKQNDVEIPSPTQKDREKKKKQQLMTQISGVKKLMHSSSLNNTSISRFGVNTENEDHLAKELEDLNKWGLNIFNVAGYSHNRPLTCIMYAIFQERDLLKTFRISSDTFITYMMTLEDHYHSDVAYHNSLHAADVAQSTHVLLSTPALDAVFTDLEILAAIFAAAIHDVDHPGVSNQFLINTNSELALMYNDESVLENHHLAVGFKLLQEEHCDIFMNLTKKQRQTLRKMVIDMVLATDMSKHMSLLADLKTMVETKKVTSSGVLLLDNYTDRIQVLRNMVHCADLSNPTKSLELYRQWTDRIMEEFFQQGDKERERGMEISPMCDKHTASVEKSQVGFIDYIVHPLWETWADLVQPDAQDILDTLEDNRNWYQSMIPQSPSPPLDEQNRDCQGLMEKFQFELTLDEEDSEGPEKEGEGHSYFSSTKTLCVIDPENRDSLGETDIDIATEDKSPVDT
T2 sequence (Q08499 whole entry): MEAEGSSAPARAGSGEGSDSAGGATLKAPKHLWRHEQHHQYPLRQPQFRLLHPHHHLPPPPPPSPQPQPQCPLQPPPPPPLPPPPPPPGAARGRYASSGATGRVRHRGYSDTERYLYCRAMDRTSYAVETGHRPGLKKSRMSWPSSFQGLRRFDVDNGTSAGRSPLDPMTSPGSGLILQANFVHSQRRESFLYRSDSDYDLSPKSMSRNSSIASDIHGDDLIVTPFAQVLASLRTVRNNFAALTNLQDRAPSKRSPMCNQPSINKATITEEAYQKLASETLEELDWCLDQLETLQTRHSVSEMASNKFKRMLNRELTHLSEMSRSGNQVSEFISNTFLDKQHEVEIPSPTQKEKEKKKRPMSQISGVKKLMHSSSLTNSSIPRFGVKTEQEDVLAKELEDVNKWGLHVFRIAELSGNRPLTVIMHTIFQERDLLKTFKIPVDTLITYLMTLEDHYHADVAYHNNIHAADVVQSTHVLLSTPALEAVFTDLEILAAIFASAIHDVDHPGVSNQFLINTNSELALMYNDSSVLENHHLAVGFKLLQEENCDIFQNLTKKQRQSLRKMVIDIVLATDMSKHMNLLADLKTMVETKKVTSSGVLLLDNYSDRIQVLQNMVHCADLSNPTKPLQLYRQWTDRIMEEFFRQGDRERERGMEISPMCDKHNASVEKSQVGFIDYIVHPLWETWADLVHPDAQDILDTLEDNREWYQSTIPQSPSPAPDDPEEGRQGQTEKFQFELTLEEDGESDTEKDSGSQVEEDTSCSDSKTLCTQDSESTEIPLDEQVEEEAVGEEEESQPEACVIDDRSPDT

Take `COc1ccc([C@@H]2CN(C(=O)[C@@H](O)CO)C[C@@]2(C)[C@@H](C)O)cc1OC1CN(c2cc(C)c(C)cn2)C1` [Compound 008, (S)-1-((3S,4S)-4-(3-((1-(4,5-dimethylpyridin-2-yl)azetidin-3-yl)oxy)-4-methoxyphenyl)-3-((R)-1-hydroxyethyl)-3-methylpyrrolidin-1-yl)-2,3-dihydroxypropan-1-one]: the IC50 in data set [1] stood at 1.46 nM; in data set [5], 1.81 nM; in data set [7], 3.58 nM. Moreover, in data set [1], the “IC50 (PDE4D)/IC50 (PDE4B)” value came to 2.45. Moreover, the inhibition in vivo at 50 mg/kg in data set [2] (setting [8]) is 63%. Further, the values for the AUC(0-t) in data set [3], in data set [4] and in data set [6] were 1760 ng·h/mL, 625 ng·h/mL and 443 ng·h/mL, respectively. Moreover, the results for the Cmax in data set [3], in data set [4] and in data set [6] were 534 ng/mL, 298 ng/mL and 133 ng/mL, respectively. Also, the figures for the Tmax in data set [3], in data set [4] and in data set [6] were 30 min, 30 min and 15 min, respectively.
For the compound `CCOc1ccc(N2CC(Oc3cc([C@@H]4CN(C(=O)[C@@H](O)CO)C[C@@]4(C)[C@@H](C)O)ccc3OC)C2)nc1` [Compound 022, (S)-1-((3S,4S)-4-(3-((1-(5-ethoxypyridin-2-yl)azetidin-3-yl)oxy)-4-methoxyphenyl)-3-((R)-1-hydroxyethyl)-3-methylpyrrolidin-1-yl)-2,3-dihydroxypropan-1-one], in data set [1], it took 0.75 nM to reach half-maximal inhibition (IC50) and the “IC50 (PDE4D)/IC50 (PDE4B)” value was determined as 1.57. Also, the inhibition in vivo at 50 mg/kg in data set [2] (setting [9]) was found to be 60.7%. Further, in data set [4], the AUC(0-t) is 215 ng·h/mL, the Cmax amounted to 186 ng/mL and the time of peak concentration (Tmax) stood at 15 min. In data set [5], this compound came in with an IC50 of 1.01 nM. Further, in data set [6], the AUC(0-t) was 410 ng·h/mL, the peak concentration (Cmax) was determined as 221 ng/mL and the time to peak (Tmax) turned out to be 19.8 min. The same compound registered an IC50 in data set [7] of 1.18 nM.
Turning to `COc1ccc([C@@H]2CN(C(=O)[C@@H](O)CO)C[C@@]2(C)[C@@H](C)O)cc1OC1CN(c2cc(C)c(Cl)cn2)C1` [Compound 010, (S)-1-((3S,4S)-4-(3-((1-(5-chloro-4-methylpyridin-2-yl)azetidin-3-yl)oxy)-4-methoxyphenyl)-3-((R)-1-hydroxyethyl)-3-methylpyrrolidin-1-yl)-2,3-dihydroxypropan-1-one], the IC50 came out at 1.9 nM in data set [1], 1.05 nM in data set [5] and 0.95 nM in data set [7]. Also, the “IC50 (PDE4D)/IC50 (PDE4B)” value in data set [1] is listed as 0.50. Besides, the inhibition in vivo at 50 mg/kg in data set [2] (setting [9]) is 47.6%; in data set [2] (setting [8]) it was 65.4%. Besides, the AUC(0-t) was determined as 1640 ng·h/mL in data set [3], 645 ng·h/mL in data set [4] and 95.3 ng·h/mL in data set [6]. The figures for the Cmax in data set [3], in data set [4] and in data set [6] were 413 ng/mL, 314 ng/mL and 40.4 ng/mL, respectively. Also, the Tmax in data set [3] was 49.8 min; in data set [4] it was 15 min; in data set [6] it was 19.8 min.
As to `COc1ccc([C@@H]2CN(C(=O)[C@@H](O)CO)C[C@@]2(C)[C@@H](C)O)cc1OC1CN(c2ccc(CC(F)(F)F)cn2)C1` [Compound 033, (S)-2,3-dihydroxy-1-((3S,4S)-3-((R)-1-hydroxyethyl)-4-(4-methoxy-3-((1-(5-(2,2,2-trifluoroethyl)pyridin-2-yl)azetidin-3-yl)oxy)phenyl)-3-methylpyrrolidin-1-yl)propan-1-one], the IC50 is 0.22 nM in data set [1], 0.53 nM in data set [5] and 2.81 nM in data set [7]. Moreover, the “IC50 (PDE4D)/IC50 (PDE4B)” value in data set [1] worked out at 12.8. Further, the inhibition in vivo at 50 mg/kg in data set [2] (setting [9]) came to 70.3%; in data set [2] (setting [8]), 75.9%.
With `COc1ccc([C@@H]2CN(C(=O)[C@@H](O)CO)C[C@@]2(C)[C@@H](C)O)cc1OC1CN(c2cc(C#N)c(C)cn2)C1` [Compound 001, 2-(3-(5-((3S,4S)-1-((S)-2,3-dihydroxypropanoyl)-4-((R)-1-hydroxyethyl)-4-methylpyrrolidin-3-yl)-2-methoxyphenoxy)azetidin-1-yl)-5-methylisonicotinonitrile], the figures for the IC50 in data set [1], in data set [5] and in data set [7] were 0.91 nM, 0.36 nM and 0.67 nM, respectively. For the same compound, in data set [1], the “IC50 (PDE4D)/IC50 (PDE4B)” value was 0.74. The inhibition in vivo at 50 mg/kg in data set [2] (setting [9]) is 53.6%; in data set [2] (setting [8]), 39.5%. In addition, the AUC(0-t) in data set [4] amounted to 311 ng·h/mL; in data set [6], 23.5 ng·h/mL. In addition, the peak concentration (Cmax) was 339 ng/mL in data set [4] and 22.5 ng/mL in data set [6]. Further, the values for the Tmax in data set [4] and in data set [6] were 15 min and 19.8 min, respectively.

For orientation: IC50 means the midpoint of a concentration-inhibition curve. As usually defined, the AUC(0-t) is the area under the concentration-time curve up to a stated or last time point. Lower therefore signals low exposure. Broadly, the Cmax is the maximum level reached in the sampled fluid or tissue. Broadly, the Tmax is the time from dosing to the highest level.
